This experiment deals with arthritic symptoms. Kind of experiment: Clinical trials: topical application for arthritis symptoms. Format: in vivo, human. Conditions: Subject No. 1, inflamed finger joint; injected locally and up to 80 mg orally over four to five months.

The record followed here is patent US6514540B1, “Therapeutic composition including plantain and aloe vera for treatment of arthritis and other afflictions” (priority 1999, dated 2003).

Procedure: In addition, the entire finger and part of the hand was affected by the pain and the swelling resulting in restricted use of the hand.
The steroids were both injected locally and ingested in the form of up to 80 mg of prednazone, which was taken orally over a period of four to five months.
During this period, the frequency of the application of the cream or lotion and heat gradually diminished to three times per day without a need for augmentation of the treatment with heat.
Onset of these symptoms can result in a two- to three-fold increase in the size of a joint, with an inflammation of the surrounding tissue. This can occur in a matter of hours and affects the associated limb resulting in substantial pain, a loss of strength in the entire limb, sleep interruption (due to pain), and general malaise due to the intensity and continuous nature of the throbbing.

As to `C[C@]12C=CC(=O)C=C1CC[C@@H]1[C@@H]2C(=O)C[C@@]2(C)[C@H]1CC[C@]2(O)C(=O)CO` [prednazone], the “relief of pain and swelling by conventional steroid treatment” value is “some initial success in relieving both the pain and swelling, but upon elimination of the drug, the symptoms returned”.
